Experimental data from PMC9180621, “Preparation of Novel Pyrazolo[4,3-e]tetrazolo[1,5-b][1,2,4]triazine Sulfonamides and Their Experimental and Computational Biological Studies” (International Journal of Molecular Sciences, 2022).

Columns and labels:
PC-3 cells = assay: Dual acridine orange/ethidium bromide (AO/EB) fluorescent staining, apoptosis; assay type: cell-based, human; conditions: PC-3, 48 h incubation, control 1.5 ± 0.7%; for mean % of apoptotic cells: AO/EB, ± SD; for % of apoptotic cells, both tested concentrations: IC50 and 2xIC50, AO/EB
Protocol: (§1) Data are presented as mean percentage of apoptotic cells (early and late apoptotic) ± SD values. The differences between the experimental samples and vehicle control were evaluated by the ANOVA test followed by Tukey’s test (p < 0.05). Experiments were performed in triplicate. For flow cytometry analysis with Annexin V-FITC staining, the approximate number of analyzed cells was (N = 1 × 10^4), contrasting with the dual acridine orange/ethidium bromide (AO/EB) fluorescent staining (N = 200). Acridine orange/ethidium bromide (AO/EB) staining is used to detect nuclear alterations and the development of apoptotic bodies, which are both indicative of apoptosis. Acridine orange penetrates into living cells, emitting green fluorescence after intercalation into DNA. The second dye, ethidium bromide, emits red fluorescence in cells with an altered cell membrane. The cells are divided into three categories as follows: living cells (green nucleus with red orange cytoplasm); apoptotic (green irregularly nuclei with chromatin condensation or fragmentation); and necrotic cells (uniformly orange-stained cell nuclei). Programmed cell death is measured by counting the number of cells that undergo apoptosis under a fluorescent microscope. BxPC-3 and PC-3 cells were seeded at an appropriate density on 12-well plates (Table 9). […] Following the incubation period, cells were incubated with fluorochromes (AO/EB: 100 µM; 1:1, v/v) for 5 min at 37 °C in the dark. Viable, apoptotic, or necrotic cells were distinguished using this method based on differential uptake of fluorescent DNA-binding dyes (AO/EB) with the structural aspect of chromatin condensation in the stained nucleus. Cells were analyzed using a fluorescence microscope (Olympus BX60 F5 Olympus Optical Co., Ltd., Nagano, Japan) at 360 nm. The results were obtained from three independent experiments.

BxPC-3 cells = assay: as above; assay type: cell-based, human; conditions: for increase in the apoptotic cell fraction: BxPC-3, both tested concentrations (IC50, 2xIC50), 24 and 48 h incubation
Protocol: as §1

[1] = tested on: cancer cell lines (BxPC-3, HCT-116, PC-3); assay: MTT assay, cancer cell lines together; assay type: cell-based; conditions: Homo sapiens; range over BxPC-3, HCT-116, PC-3; 72 h MTT; read-out: IC50 values in cancer cells
Protocol: (§2) A statistical program (Graphpad Prism 7) was used to analyze obtained data (MTT test). The dose–response analysis was performed to estimate the inhibitory concentration (IC50) of the tested compounds. The IC50 value is defined as a concentration of the tested compound that leads to a reduction in cell pool viability by 50% compared to the negative control (accepted as 100%). % cell viability=Absorbance value of treated cells−Absorbance value of blank/Absorbance value of untreated cells−Absorbance value of blank×100%
To estimate cell viability following 72 h incubation with the tested MM-compounds (MM134, MM136, MM137, and MM139), the MTT test was used according to the PN-EN ISO 10993-5. It is a quantitative method based on the tetrazolium yellow dye MTT [3(4,5-dimethyl-2-thiazolyl)-2,5-diphenyl-2H-tetrazolium bromide], which is converted by living cells to a purple product, formazan, the concentration of which was measured colorimetrically. […]
After 72 h of incubation of cells with tested MM-compounds, 20 µL of MTT tetrazolium salt (5 mg/mL in PBS) was added to each well, and plates were incubated once again in a humidified atmosphere for 3 h (37 °C; 5% CO2). […] Subsequently, a spectrophotometer (microplate reader Power Wave XS BioTek Instruments, Inc., Winooski, VT, USA) reading was performed at 570 nm. […]

HCT-116 cells = assay: MTT assay, cell viability; assay type: cell-based; conditions: Homo sapiens, HCT-116, 72 h incubation, ± SD
Protocol: as §2
To estimate cell viability following 72 h incubation with the tested MM-compounds (MM134, MM136, MM137, and MM139), the MTT test was used according to the PN-EN ISO 10993-5. It is a quantitative method based on the tetrazolium yellow dye MTT [3(4,5-dimethyl-2-thiazolyl)-2,5-diphenyl-2H-tetrazolium bromide], which is converted by living cells to a purple product, formazan, the concentration of which was measured colorimetrically. The MTT assay was performed according to the procedure described by Mosmann with modifications. At a density of approximately 8 × 10^3 cells per 100 µL/well, 96-well plates were seeded. Following the given incubation period in controlled conditions (37 °C; 5% CO2), cells were exposed to different concentrations of tested compounds in DMSO (range 0.05–3 µM) in a volume of 100 µL medium per well. Final solvent concentration of DMSO was < 0.5% v/v. The experimental design included vehicle controls and blanks (wells without cells).
After 72 h of incubation of cells with tested MM-compounds, 20 µL of MTT tetrazolium salt (5 mg/mL in PBS) was added to each well, and plates were incubated once again in a humidified atmosphere for 3 h (37 °C; 5% CO2). Following the incubation time, the solutions were removed and 100 µL of DMSO was added to dissolve the formazan complexes. Subsequently, a spectrophotometer (microplate reader Power Wave XS BioTek Instruments, Inc., Winooski, VT, USA) reading was performed at 570 nm. The experiments were performed in duplicates.

SMILES | mean % of apoptotic cells (PC-3 cells; 2xIC50 concentration) | mean % of apoptotic cells (PC-3 cells; IC50 concentration) | increase in the apoptotic cell fraction (BxPC-3 cells) | IC50 [1] | % of apoptotic cells, both tested concentrations (PC-3 cells) | increase in apoptotic fraction (BxPC-3 cells; BxPC-3, IC50 concentration, 24 h incubation) | IC50 (HCT-116 cells)
Cc1nn(-c2ccc(S(=O)(=O)NCCN3CCOCC3)cc2)c2nn3nnnc3nc12 [MM134] | 11 ± 1.41% | 8.5 ± 0.7% | statistically significant increase |  |  |  | 
Cc1nn(-c2ccc(S(=O)(=O)N3CCN(C)CC3)cc2)c2nn3nnnc3nc12 [MM137] | 24 ± 1.41% | 15 ± 2.82% |  | 110 to 160 nM | statistically significant increase | did not induce a significant increase | 140 ± 20 nM
Cc1nn(-c2ccc(S(=O)(=O)N3CCCCC3)cc2)c2nn3nnnc3nc12 [MM139] | 12.5 ± 0.7% | 13.5 ± 3.53% | statistically significant increase |  | statistically significant increase |  | 350 ± 50 nM
